From ChEMBL document CHEMBL4610081, “Anti-inflammatory Metabolites from Chaetomium nigricolor” (J Nat Prod, 2020)
The source made the active and inactive calls. The rule behind the calls is not given here.

Columns and labels:
RAW264.7 [1] = test: Antiinflammatory activity against mouse RAW264.7 cells assessed as LPS-induced INOS mRNA expression at 10 uM preincubated for 3 hrs followed by LPS-stimulation and measured after 24 hrs by RT-PCR analysis (reference value: 8.2); type: functional
RAW264.7 [2] = test: Trans-suppression of NFkappaB in mouse RAW264.7 cells assessed as LPS-induced IKB-apha phosphorylation at 10 uM preincubated for 3 hrs followed by LPS-stimulation and measured after 1 hr by Western blot analysis (reference value: 6.04); type: cell-based
RAW264.7 [3] = test: Inhibition of LPS-induced ERK phosphorylation in mouse RAW264.7 cell at 10 uM preincubated for 3 hrs followed by LPS-stimulation and measured after 1 hr by Western blot analysis (reference value: 6.92); type: cell-based
RAW264.7 [4] = test: Trans-suppression of NFkappaB in mouse RAW264.7 cells assessed as LPS-induced nuclear-p65 level at 2.5 uM preincubated for 3 hrs followed by LPS-stimulation and measured after 1 hr by Western blot analysis (reference value: 3.3); type: cell-based
RAW264.7 [5] = test: Antiinflammatory activity against mouse RAW264.7 cells assessed as LPS-induced COX-2 mRNA expression at 10 uM preincubated for 3 hrs followed by LPS-stimulation and measured after 24 hrs by RT-PCR analysis (reference value: 14.39); type: functional
RAW264.7 [6] = test: Trans-suppression of NFkappaB in mouse RAW264.7 cells assessed as LPS-induced nuclear-p65 level at 10 uM preincubated for 3 hrs followed by LPS-stimulation and measured after 1 hr by Western blot analysis (reference value: 3.3); type: cell-based
RAW264.7 [7] = test: Trans-suppression of NFkappaB in mouse RAW264.7 cells assessed as LPS-induced IKB-apha degradation at 5 uM preincubated for 3 hrs followed by LPS-stimulation and measured after 1 hr by Western blot analysis (reference value: 0.29); type: cell-based
RAW264.7 [8] = test: Cytotoxicity against mouse RAW264.7 cells assessed as reduction cell viability at 20 uM by MTT assay; type: cell-based; conditions: raw264.7, 20 µM
RAW264.7 [9] = test: Antiinflammatory activity against mouse RAW264.7 cells assessed as reduction in LPS-induced IL6 mRNA expression preincubated for 3 hrs followed by LPS-stimulation and measured after 12 hrs by RT-PCR analysis; type: functional, cell-based
RAW264.7 [10] = test: Antiinflammatory activity against mouse RAW264.7 cells assessed as reduction in LPS-induced TNF-alpha mRNA expression preincubated for 3 hrs followed by LPS-stimulation and measured after 12 hrs by RT-PCR analysis; type: functional, cell-based
RAW264.7 [11] = test: Inhibition of LPS-induced p38 MAPK protein expression in mouse RAW264.7 cell at 2.5 uM preincubated for 3 hrs followed by LPS-stimulation and measured after 1 hr by Western blot analysis (reference value: 1.1); type: functional
RAW264.7 [12] = test: Inhibition of LPS-induced p38 MAPK protein expression in mouse RAW264.7 cell at 10 uM preincubated for 3 hrs followed by LPS-stimulation and measured after 1 hr by Western blot analysis (reference value: 1.1); type: functional
RAW264.7 [13] = test: Inhibition of LPS-induced JNK phosphorylation in mouse RAW264.7 cell at 10 uM preincubated for 3 hrs followed by LPS-stimulation and measured after 1 hr by Western blot analysis (reference value: 8.88); type: cell-based
RAW264.7 [14] = test: Trans-suppression of NFkappaB in mouse RAW264.7 cells assessed as LPS-induced cytosol-p65 level at 2.5 uM preincubated for 3 hrs followed by LPS-stimulation and measured after 1 hr by Western blot analysis (reference value: 0.09); type: cell-based
RAW264.7 [15] = test: Trans-suppression of NFkappaB in mouse RAW264.7 cells assessed as LPS-induced cytosol-p50 level at 10 uM preincubated for 3 hrs followed by LPS-stimulation and measured after 1 hr by Western blot analysis (reference value: 0.28); type: cell-based
[16] = target: T1, MAP kinase p38 (Mus musculus) (UniProt P47811+O08911+Q9WUI1+Q9Z1B7); test: Inhibition of LPS-induced p38 MAPK phosphorylation in mouse RAW264.7 cell at 10 uM preincubated for 3 hrs followed by LPS-stimulation and measured after 1 hr by Western blot analysis (reference value: 5.59); type: cell-based
RAW264.7 [17] = test: Antiinflammatory activity against mouse RAW264.7 cells assessed as LPS-induced INOS mRNA expression at 2.5 uM preincubated for 3 hrs followed by LPS-stimulation and measured after 24 hrs by RT-PCR analysis (reference value: 8.2); type: functional
RAW264.7 [18] = test: Antiinflammatory activity against mouse RAW264.7 cells assessed as reduction in LPS-induced IL-12 mRNA expression preincubated for 3 hrs followed by LPS-stimulation and measured after 12 hrs by RT-PCR analysis; type: functional, cell-based
RAW264.7 [19] = test: Trans-suppression of NFkappaB in mouse RAW264.7 cells assessed as reduction in LPS-induced DNA binding at 2.5 to 10 uM preincubated for 3 hrs followed by LPS-stimulation and measured after 1 hr by TransAM assay; type: cell-based
RAW264.7 [20] = test: Inhibition of LPS-induced JNK phosphorylation in mouse RAW264.7 cell preincubated for 3 hrs followed by LPS-stimulation and measured after 1 hr by Western blot analysis; type: cell-based
RAW264.7 [21] = test: Trans-suppression of NFkappaB in mouse RAW264.7 cells assessed as LPS-induced cytosol-p65 level at 5 uM preincubated for 3 hrs followed by LPS-stimulation and measured after 1 hr by Western blot analysis (reference value: 0.09); type: cell-based
RAW264.7 [22] = test: Trans-suppression of NFkappaB in mouse RAW264.7 cells assessed as LPS-induced cytosol-p50 level at 2.5 uM preincubated for 3 hrs followed by LPS-stimulation and measured after 1 hr by Western blot analysis (reference value: 0.28); type: cell-based
RAW264.7 [23] = test: Inhibition of LPS-induced JNK protein expression in mouse RAW264.7 cell at 5 uM preincubated for 3 hrs followed by LPS-stimulation and measured after 1 hr by Western blot analysis (reference value: 1.21); type: functional
RAW264.7 [24] = test: Inhibition of LPS-induced p38 MAPK protein expression in mouse RAW264.7 cell at 5 uM preincubated for 3 hrs followed by LPS-stimulation and measured after 1 hr by Western blot analysis (reference value: 1.1); type: functional
[25] = target: T1, MAP kinase p38 (Mus musculus); test: Inhibition of LPS-induced p38 MAPK phosphorylation in mouse RAW264.7 cell at 2.5 uM preincubated for 3 hrs followed by LPS-stimulation and measured after 1 hr by Western blot analysis (reference value: 5.59); type: cell-based
RAW264.7 [26] = test: Inhibition of LPS-induced ERK phosphorylation in mouse RAW264.7 cell at 5 uM preincubated for 3 hrs followed by LPS-stimulation and measured after 1 hr by Western blot analysis (reference value: 6.92); type: cell-based

With `COc1cc(OC)c2c(O)c3c(=O)cc(C)oc3c(-c3c(O)cc4cc(O)c5c(=O)cc(C)oc5c4c3OC)c2c1` (atropisomer aS) [ASPERPYRONE A] the “fold change (FC)” value (RAW264.7 [1]) was 1.03, the fold change (FC) (RAW264.7 [2]) was 2.3 and the fold change (FC) (RAW264.7 [3]) was 7.03. The fold change (FC) (RAW264.7 [4]) was 3.28, the “fold change (FC)” value (RAW264.7 [5]) was 3.69 and the fold change (FC) (RAW264.7 [6]) was 1.54. The fold change (FC) (RAW264.7 [7]) was 0.68, the Activity (RAW264.7 [8]) was “Non-Toxic” and the Activity (RAW264.7 [9]) was “Dose-dependent effect”. The Activity (RAW264.7 [10]) was “Dose-dependent effect”, the “fold change (FC)” value (RAW264.7 [11]) was 1.12 and the “fold change (FC)” value (RAW264.7 [12]) was 1.05. The fold change (FC) (RAW264.7 [13]) was 3.08, the fold change (FC) (RAW264.7 [14]) was 0.42 and the fold change (FC) (RAW264.7 [15]) was 1.12. For the same molecule, the fold change (FC) [16] was 5.66, the “fold change (FC)” value (RAW264.7 [17]) was 8.48 and the Activity (RAW264.7 [18]) was “Dose-dependent effect”. For the same molecule, the Activity (RAW264.7 [19]) was “Active”, the inhibition (RAW264.7 [20]) was “Dose-dependent effect” and the fold change (FC) (RAW264.7 [21]) was 0.78. The fold change (FC) (RAW264.7 [22]) was 0.55, the “fold change (FC)” value (RAW264.7 [23]) was 1.16 and the “fold change (FC)” value (RAW264.7 [24]) was 0.98. The fold change (FC) [25] was 5.63 and the fold change (FC) (RAW264.7 [26]) was 7.31.
